Data taken from article PMC11942486, “The Impact of a Quinone Scaffold on Thermo-TRPs Modulation by Dimethylheptyl Phytocannabinoids” (International Journal of Molecular Sciences, 2025).
Several values for one entry are separate records, joined by “and”; a condition that tells them apart may be missing. Equal values may be shown once. Read-outs that look alike come from different tables or passages of the source.

Assays:
Type in all cases: cell-based
rat TRPV4 = molecular target: T1, rat TRPV4 (Rattus norvegicus, UniProt Q9ERZ8); assay: Thermo-TRP assay: [Ca2+]i elevation (Fluo-4) in HEK-293 cells transfected with TRPV4
T1 construct: expressed in transfected cells
Protocol: (§1) The compounds were tested on HEK-293 cells either stably transfected with rat TRPA1, TRPV2, TRPV3, TRPV4, TRPM8 or human TRPV1 or not-transfected, by performing a continuous monitoring of the intracellular calcium ([Ca^2+]i) elevation during the experiments, following the protocol already described. […] Cell fluorescence before and after the addition of various concentrations of tested compounds was measured, normalizing the effects against the response to ionomycin (IM, 4 μM). The effect on [Ca^2+]i in non-transfected HEK-293 cells were used as the baseline and subtracted from the values obtained from the transfected ones. The efficacy of the agonists was determined by normalizing their effect to the maximum Ca^2+ influx effect on [Ca^2+]i observed with application of 4μM ionomycin. The effects of TRPA1 agonists are expressed as a percentage of the effect obtained with 100 μM allyl isothiocyanate (AITC). In the TRPV3 assay, rat TRPV3-expressing HEK-293 cells were first sensitized with the structurally unrelated agonist 2-aminoethoxydiphenyl borate (100 μM). For the TRPM8, the experiments were carried out at 22 °C. The potency (EC50 values) is determined as the concentration required to produce half-maximal increases in [Ca^2+]i. […] A dose-response curve fitting (sigmoidal dose-response variable slope) and parameter estimation were performed with Graph-Pad Prism 8 (GraphPad Software Inc., San Diego, CA, USA). All determinations were performed at least in triplicate.

human TRPV1 = molecular target: T2, human TRPV1 (Homo sapiens, UniProt Q8NER1); assay: Thermo-TRP assay: [Ca2+]i elevation (Fluo-4) in HEK-293 cells transfected with TRPV1
T2 construct: expressed in transfected cells
Protocol: as §1

rat TRPV3 = molecular target: T3, rat TRPV3 (Rattus norvegicus, UniProt Q4QYD9); assay: Thermo-TRP assay: [Ca2+]i elevation (Fluo-4) in HEK-293 cells transfected with TRPV3; conditions: for TRPV3 Efficacy (% Ionomycin 4 μM): agonist effect as % of ionomycin 4 μM, cells sensitized with 2-aminoethoxydiphenyl borate 100 μM; for IC50: antagonist/desensitizing, vs Thymol 100 μM; for EC50: half-maximal increase in [Ca2+]i, read-out: TRPV3 Potency EC50
T3 construct: expressed in transfected cells
T3 sequence (Q4QYD9 1-791): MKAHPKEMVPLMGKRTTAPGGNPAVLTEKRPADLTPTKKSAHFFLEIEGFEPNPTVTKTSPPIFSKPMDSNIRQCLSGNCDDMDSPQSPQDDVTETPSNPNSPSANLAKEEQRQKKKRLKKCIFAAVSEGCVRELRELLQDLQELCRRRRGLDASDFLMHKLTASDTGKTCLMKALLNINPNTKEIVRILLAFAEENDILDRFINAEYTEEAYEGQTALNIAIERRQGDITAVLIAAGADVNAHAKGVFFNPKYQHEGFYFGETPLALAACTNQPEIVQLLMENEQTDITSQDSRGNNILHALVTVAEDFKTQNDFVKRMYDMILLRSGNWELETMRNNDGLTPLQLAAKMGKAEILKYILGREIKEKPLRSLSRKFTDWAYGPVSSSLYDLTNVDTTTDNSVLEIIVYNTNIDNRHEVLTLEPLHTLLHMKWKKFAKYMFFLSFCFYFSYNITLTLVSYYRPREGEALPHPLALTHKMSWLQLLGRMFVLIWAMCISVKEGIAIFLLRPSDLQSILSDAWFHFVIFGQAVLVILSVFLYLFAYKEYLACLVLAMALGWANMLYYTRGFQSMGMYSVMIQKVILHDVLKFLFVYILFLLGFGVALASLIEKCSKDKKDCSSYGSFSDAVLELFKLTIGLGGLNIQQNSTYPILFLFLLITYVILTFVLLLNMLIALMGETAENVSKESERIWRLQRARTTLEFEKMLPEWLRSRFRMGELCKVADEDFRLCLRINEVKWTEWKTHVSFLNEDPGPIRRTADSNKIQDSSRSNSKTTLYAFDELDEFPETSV
Protocol: The compounds were tested on HEK-293 cells either stably transfected with rat TRPA1, TRPV2, TRPV3, TRPV4, TRPM8 or human TRPV1 or not-transfected, by performing a continuous monitoring of the intracellular calcium ([Ca^2+]i) elevation during the experiments, following the protocol already described. On the day of the experiment, the cells were loaded for 1 h in the dark at room temperature with the fluorescent probe Fluo-4 AM (4 μM in DMSO containing 0.02% Pluronic F-127). The cells were rinsed, resuspended in Tyrode’s solution (145 mM NaCl, 2.5 mM KCl, 1.5 mM CaCl2, 1.2 mM MgCl2, 10 mM D-glucose, and 10 mM HEPES, pH 7.4), and transferred to a quartz cuvette of a spectrofluorimeter (PerkinElmer LS50B; λEX = 488 nm, λEM = 516 nm) equipped with a PTP-1 fluorescence Peltier system (PerkinElmer Life and Analytical Sciences, Waltham, MA, USA) under continuous stirring. Cell fluorescence before and after the addition of various concentrations of tested compounds was measured, normalizing the effects against the response to ionomycin (IM, 4 μM). The effect on [Ca^2+]i in non-transfected HEK-293 cells were used as the baseline and subtracted from the values obtained from the transfected ones. The efficacy of the agonists was determined by normalizing their effect to the maximum Ca^2+ influx effect on [Ca^2+]i observed with application of 4μM ionomycin. The effects of TRPA1 agonists are expressed as a percentage of the effect obtained with 100 μM allyl isothiocyanate (AITC). In the TRPV3 assay, rat TRPV3-expressing HEK-293 cells were first sensitized with the structurally unrelated agonist 2-aminoethoxydiphenyl borate (100 μM). For the TRPM8, the experiments were carried out at 22 °C. The potency (EC50 values) is determined as the concentration required to produce half-maximal increases in [Ca^2+]i. Antagonist/desensitizing behavior is evaluated against the agonist of the TRP analyzed by adding the compounds directly in the quartz cuvette 5 min before stimulation of cells with the agonist (allylisothiocyanate (100 μM) for TRPA1, capsaicin (0.1 μM) for TRPV1, cannabidiol (2 μM) for TRPV2, thymol (100 μM) for TRPV3, GSK1016790A (10 nM) for TRPV4, and icilin (0.25 μM) for TRPM8). The IC50 value is expressed as the concentration exerting a half-maximal inhibition of the agonist effect, taking as 100% the effect on [Ca^2+]i exerted by the agonist alone. A dose-response curve fitting (sigmoidal dose-response variable slope) and parameter estimation were performed with Graph-Pad Prism 8 (GraphPad Software Inc., San Diego, CA, USA). All determinations were performed at least in triplicate.

[1] = vs GSK1016790A 10 nM, read-out: IC50 TRPV4
[2] = vs Capsaicin 0.1 μM, read-out: IC50 TRPV1

T2 sequence (Q8NER1 whole entry): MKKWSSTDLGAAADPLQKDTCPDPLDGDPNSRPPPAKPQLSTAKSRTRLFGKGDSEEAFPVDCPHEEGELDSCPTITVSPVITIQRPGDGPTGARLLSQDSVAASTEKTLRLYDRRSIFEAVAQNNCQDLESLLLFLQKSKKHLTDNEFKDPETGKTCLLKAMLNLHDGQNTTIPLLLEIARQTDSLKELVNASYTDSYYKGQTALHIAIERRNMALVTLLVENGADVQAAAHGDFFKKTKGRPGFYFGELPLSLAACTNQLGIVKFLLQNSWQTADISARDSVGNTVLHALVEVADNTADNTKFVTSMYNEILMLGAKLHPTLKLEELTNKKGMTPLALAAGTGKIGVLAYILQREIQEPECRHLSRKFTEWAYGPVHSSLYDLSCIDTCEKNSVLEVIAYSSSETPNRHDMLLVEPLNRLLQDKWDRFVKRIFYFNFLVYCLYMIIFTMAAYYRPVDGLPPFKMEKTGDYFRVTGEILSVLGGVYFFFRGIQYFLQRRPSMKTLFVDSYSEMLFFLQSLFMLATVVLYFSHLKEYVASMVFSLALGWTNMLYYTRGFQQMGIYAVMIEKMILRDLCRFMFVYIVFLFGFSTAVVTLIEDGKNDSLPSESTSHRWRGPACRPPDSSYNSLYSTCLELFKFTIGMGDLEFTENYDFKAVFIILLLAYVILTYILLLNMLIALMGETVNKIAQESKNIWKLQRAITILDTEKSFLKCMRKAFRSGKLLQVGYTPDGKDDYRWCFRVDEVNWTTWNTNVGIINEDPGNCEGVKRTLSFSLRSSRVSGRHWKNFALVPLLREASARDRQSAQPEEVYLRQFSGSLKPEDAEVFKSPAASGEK
T1 sequence (Q9ERZ8 whole entry): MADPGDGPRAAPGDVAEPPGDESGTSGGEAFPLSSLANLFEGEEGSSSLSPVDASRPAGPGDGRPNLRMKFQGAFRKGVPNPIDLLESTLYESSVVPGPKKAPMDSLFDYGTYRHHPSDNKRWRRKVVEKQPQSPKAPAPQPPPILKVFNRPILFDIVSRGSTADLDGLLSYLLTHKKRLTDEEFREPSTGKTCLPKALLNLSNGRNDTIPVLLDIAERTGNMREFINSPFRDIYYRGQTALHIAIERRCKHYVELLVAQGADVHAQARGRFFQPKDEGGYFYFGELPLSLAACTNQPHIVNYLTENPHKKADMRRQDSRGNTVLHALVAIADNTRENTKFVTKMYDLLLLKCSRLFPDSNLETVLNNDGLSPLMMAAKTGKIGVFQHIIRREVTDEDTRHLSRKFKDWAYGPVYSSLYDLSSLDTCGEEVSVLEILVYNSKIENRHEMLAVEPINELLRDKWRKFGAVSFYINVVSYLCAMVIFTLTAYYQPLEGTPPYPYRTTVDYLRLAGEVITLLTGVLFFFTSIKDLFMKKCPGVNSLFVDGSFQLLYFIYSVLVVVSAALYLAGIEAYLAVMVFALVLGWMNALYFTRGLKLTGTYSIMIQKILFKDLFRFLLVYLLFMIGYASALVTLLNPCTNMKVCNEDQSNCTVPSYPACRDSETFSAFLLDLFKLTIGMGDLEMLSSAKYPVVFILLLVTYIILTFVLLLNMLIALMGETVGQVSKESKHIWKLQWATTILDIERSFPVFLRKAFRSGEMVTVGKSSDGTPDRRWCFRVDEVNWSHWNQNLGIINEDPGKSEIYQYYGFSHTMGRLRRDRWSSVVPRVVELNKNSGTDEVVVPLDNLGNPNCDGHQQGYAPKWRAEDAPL

SMILES	IC50 (rat TRPV4; [1]) [µM]	IC50 (human TRPV1; [2]) [µM]	TRPV3 Efficacy (% Ionomycin 4 μM) (rat TRPV3) [%]	IC50 (rat TRPV3)	EC50 (rat TRPV3) [µM]	IC50 (rat TRPV4) [µM]	IC50 (human TRPV1) [µM]
C=C(C)[C@@H]1CCC(C)=C[C@H]1C1=C(O)C(=O)C(C(C)(C)CCCCCC)=CC1=O [5b]	> 100	> 100	64.3 ± 0.9	0.76 ± 0.01 µM	0.46 ± 0.02	–	–
CCCCCCC(C)(C)C1=CC2=C(C(=O)C1=O)[C@@H]1CC(C)=CC[C@H]1C(C)(C)O2 [6b]	–	–	66.8 ± 2.2	0.72 ± 0.08 µM	0.5 ± 0.1	> 100	> 100
CCCCCCC(C)(C)C1=CC(=O)C(C/C=C(\C)CCC=C(C)C)=C(O)C1=O [7b, p-DMHCBGQ]	> 50	> 100	51.1 ± 1.0	< 10 µM and 8.6 µM	1.5 ± 0.2	–	–
CCCCCCC(C)(C)C1=CC(=O)C2=C(OC(C)(CCC=C(C)C)C=C2)C1=O (centres unmarked) [8b]	> 100	> 100	37.55 ± 0.85	38.3 ± 2 µM	13.6 ± 1.8	–	–
